Tests used:
Format in all cases: in vivo
[1] = tested on: Amaranthus retroflexus L. (pigweed); assay: Greenhouse post-emergence treatment of Amaranthus retroflexus L.; conditions: scale 0 (no damage) to 100 (complete destruction)
Excerpt: (§1) The culture containers used were plastic flowerpots containing loamy sand with approximately 3.0% of humus as the substrate. The seeds of the test plants were sown separately for each species.
(§2) For the post-emergence treatment, the test plants were first grown to a height of 3 to 15 cm, depending on the plant habit, and only then treated with the active ingredients which had been suspended or emulsified in water. For this purpose, the test plants were either sown directly and grown in the same containers, or they were first grown separately as seedlings and transplanted into the test containers a few days prior to treatment.
(§3) Depending on the species, the plants were kept at 10-25° C. or 20-35° C. The test period extended over 2 to 4 weeks. During this time, the plants were tended, and their response to the individual treatments was evaluated.
(§4) Evaluation was carried out using a scale from 0 to 100. 100 means no emergence of the plants, or complete destruction of at least the aerial moieties, and 0 means no damage, or normal course of growth. A good herbicidal activity is given at values of at least 80 and a very good herbicidal activity is given at values of at least 90.

[2] = tested on: Polygonum convolvulus (wild buckwheat); assay: Greenhouse post-emergence treatment of Polygonum convolvulus; conditions: scale 0 (no damage) to 100 (complete destruction)
Excerpt: as §1, §2, §3, §4

[3] = tested on: Chenopodium album (fat-hen); assay: Greenhouse post-emergence treatment of Chenopodium album; conditions: scale 0 (no damage) to 100 (complete destruction)
Excerpt: as §1, §2, §3, §4

[4] = tested on: Echinochloa crus-galli (barnyard grass); assay: Greenhouse post-emergence treatment of Echinochloa crus-galli; conditions: application rate 500 [kg/ha], scale 0 (no damage) to 100 (complete destruction)
Excerpt: as §1, §2, §3, §4

[5] = tested on: Setaria viridis (green foxtail); assay: Greenhouse post-emergence treatment of Setaria viridis; conditions: application rate 500 [kg/ha], scale 0 (no damage) to 100 (complete destruction)
Excerpt: as §1, §2, §3, §4

Row | SMILES | damage [%] ([1]; application rate 500 [g/ha]) | damage [%] ([3]; application rate 500 [kg/ha]) | further results
1 | CCC(CCc1noc2nc(C3CC3)cc(C(=O)O)c12)=NO (mixture of isomers) [I.a.79] | 100% |  | damage [%] ([2]; application rate 500 [kg/ha]): 85%
2 | CCC(CCc1noc2nc(C3CC3)cc(C(=O)O)c12)=NOC (mixture of isomers) [I.a.80] | 100% | 98% | damage [%] ([2]; application rate 500 [kg/ha]): 100%
3 | C=CCOc1noc2nc(C3CC3)cc(C(=O)O)c12 [I.a.44] |  |  | damage [%] ([1]; application rate 1000 [g/ha]): 100%; damage [%] ([3]; application rate 1000 [kg/ha]): 100%
4 | CON=CCCc1noc2nc(C3CC3)cc(C(=O)O)c12 [I.a.59] | 98% | 98% | 
5 | O=C(NCC(F)(F)F)NN=CCCc1noc2nc(C3CC3)cc(C(=O)O)c12 [I.a.60] |  |  | damage [%] ([2]; application rate 500 [kg/ha]): 95%
6 | O=C(O)c1cc(C2CC2)nc2onc(OCc3ccccc3)c12 [I.a.66] |  |  | damage [%] ([1]; application rate 1000 [g/ha]): 100%; damage [%] ([3]; application rate 1000 [kg/ha]): 100%
7 | COCCOc1noc2nc(C3CC3)cc(C(=O)O)c12 [I.a.67] |  |  | damage [%] ([3]; application rate 1000 [kg/ha]): 100%; damage [%] ([2]; application rate 1000 [kg/ha]): 98%
8 | CCC(=O)CCc1noc2nc(C3CC3)cc(C(=O)O)c12 [I.a.74] | 98% | 98% | 
9 | CCC(CCc1noc2nc(C3CC3)cc(C(=O)O)c12)=NN [I.a.81] |  | 75% | 
10 | O=C(O)c1cc(C2CC2)nc2onc(SCc3ccccc3)c12 [I.a.85] |  |  | damage [%] [4]: 70%
11 | O=C(O)c1cc(C2CC2)nc2onc(SC3CCCCC3)c12 [I.a.86] | 95% |  | 
12 | O=C(O)c1cc(C2CC2)nc2onc(SC3CCCC3)c12 [I.a.87] | 80% | 70% | damage [%] [4]: 75%
13 | O=C(O)c1cc(C2CC2)nc2onc(OC3CCCCC3Cl)c12 (stereo not shown) [I.a.88] | 100% | 100% | 
14 | O=C(O)c1cc(C2CC2)nc2onc(OC3COC3)c12 [I.a.89] | 70% | 70% | 
15 | O=C(O)c1cc(C2CC2)nc2onc(OC3CCCC3)c12 [I.a.91] | 100% | 98% | 
16 | O=C(O)c1cc(C2CC2)nc2onc(OC3CCC3)c12 [I.a.92] | 100% | 100% | damage [%] [5]: 85%
